Experimental data reported in US20100292217A1, “RANOLAZINE FOR THE TREATMENT OF CNS DISORDERS” (Gilead Palo Alto, Inc., priority 2009, published 2010).
Where two headings read alike, the source gives them in different places.

Assays:
[1] = Brain penetration in rats after continuous intravenous infusion (LC-MS/MS); type: in vivo, Sprague Dawley rats; conditions: for concentration at 1 h / concentration at 2.5 h / concentration at 5 h: 85.5 μg/kg/min
Protocol: Jugular vein cannulated male Sprague Dawley rats (250-350 g, Charles River Laboratories, Hollister, Calif.) were used to study brain penetration of ranolazine in vivo. Animal use was approved by the Institutional Animal Care and Use Committee, Gilead Sciences. Three rats per group were infused intravenously with ranolazine in saline at 85.5 μg/kg/min. After 1, 2.5 or 5 h animals were sacrificed for plasma and brain collection, and ranolazine concentrations were measured by liquid chromatography coupled with tandem mass spectrometry (LC-MS/MS). Brain tissue was homogenated in 1% 2N HCl acidified 5% sodium fluoride (final homogenate was diluted 3-fold). Plasma and brain homogenate samples (50 μl) were precipitated along with deuterated D3-ranolazine as an internal standard, vortexed and centrifuged. The supernatant (50 μL) was transferred and diluted with water (450 μl) prior to injection (10 μl). High performance liquid chromatography was performed using a Shimadzu LC-10AD liquid chromatograph and a Luna C18(2), 3 μm, 20×2.0 mm column with a mobile phase consisting of water containing 0.1% formic acid (solution A) and acetonitrile (solution B) carried out under isocratic conditions (75% solution A, 25% solution B; flow rate 0.300 ml/min). Mass spectrometric analyses were performed using an API3000 mass spectrometer (Applied Biosystems, Foster City, Calif.) operating in positive ion mode with MRM transition 428.1>98. Brain-to-plasma ranolazine ratios were calculated for each sample as ng ranolazine/g brain divided by ng ranolazine/ml plasma.

[2] = usual clinical dosages; minority with mild dizziness, nausea, headache, constipation; cited from earlier work
Nav1.1 R1648H = molecular target: T1, Nav1.1 R1648H (Homo sapiens, UniProt P35498, R1648H); test: Whole-cell voltage-clamp of mutant Nav1.1 R1648H (GEFS+); type: cell-based
T1 construct: expressed in transfected cells; host or cells: tsA201 cells (named for WT; same transient transfection method for mutants)

Nav1.4 = conditions: inverse sodium gradient, Wang et al. 2008; cited from earlier work
[3] = Sicouri 2008; Chaitman 2006; cited from earlier work
[4] = molecular target: cardiac voltage-gated potassium channel HERG (Homo sapiens, UniProt Q12809); conditions: accounts for mild QT interval prolongation in some subjects; cited from earlier work
[5] = test system: Nav1.1 mutant channels (R1648H, T875M, R1648C, F1661S, L263V, Q1489K); test: Whole-cell voltage-clamp of panel of Nav1.1 mutant channels (GEFS+, SMEI, FHM3); type: cell-based, Human
WT-Nav1.1 = molecular target: T2, WT-Nav1.1 (Homo sapiens, UniProt P35498); test: Whole-cell voltage-clamp of WT-Nav1.1 expressed heterologously in tsA201 cells; type: cell-based
T2 construct: expressed in transfected cells; host or cells: tsA201 cells, transient transfection

WT-Nav1.2 = molecular target: T3, WT-Nav1.2 (Homo sapiens, UniProt Q99250); test: Whole-cell voltage-clamp of WT-Nav1.2 stably transfected in CHO cells; type: cell-based; conditions: Example 2; methods in present tense, no data given
T3 construct: expressed in transfected cells

[6] = 3 μM ranolazine, pulse trains 10-135 Hz
[7] = pulse 300 of 10 Hz train, read-out: Use-Dependent Block of Peak Current IC50
[8] = read-out: Tonic Block of Peak Current IC50
[9] = read-out: Tonic Block of Persistent Current IC50
[10] = summary statement, persistent current evoked by SCN1A mutations, channel not specified

T3 sequence (Q99250 whole entry): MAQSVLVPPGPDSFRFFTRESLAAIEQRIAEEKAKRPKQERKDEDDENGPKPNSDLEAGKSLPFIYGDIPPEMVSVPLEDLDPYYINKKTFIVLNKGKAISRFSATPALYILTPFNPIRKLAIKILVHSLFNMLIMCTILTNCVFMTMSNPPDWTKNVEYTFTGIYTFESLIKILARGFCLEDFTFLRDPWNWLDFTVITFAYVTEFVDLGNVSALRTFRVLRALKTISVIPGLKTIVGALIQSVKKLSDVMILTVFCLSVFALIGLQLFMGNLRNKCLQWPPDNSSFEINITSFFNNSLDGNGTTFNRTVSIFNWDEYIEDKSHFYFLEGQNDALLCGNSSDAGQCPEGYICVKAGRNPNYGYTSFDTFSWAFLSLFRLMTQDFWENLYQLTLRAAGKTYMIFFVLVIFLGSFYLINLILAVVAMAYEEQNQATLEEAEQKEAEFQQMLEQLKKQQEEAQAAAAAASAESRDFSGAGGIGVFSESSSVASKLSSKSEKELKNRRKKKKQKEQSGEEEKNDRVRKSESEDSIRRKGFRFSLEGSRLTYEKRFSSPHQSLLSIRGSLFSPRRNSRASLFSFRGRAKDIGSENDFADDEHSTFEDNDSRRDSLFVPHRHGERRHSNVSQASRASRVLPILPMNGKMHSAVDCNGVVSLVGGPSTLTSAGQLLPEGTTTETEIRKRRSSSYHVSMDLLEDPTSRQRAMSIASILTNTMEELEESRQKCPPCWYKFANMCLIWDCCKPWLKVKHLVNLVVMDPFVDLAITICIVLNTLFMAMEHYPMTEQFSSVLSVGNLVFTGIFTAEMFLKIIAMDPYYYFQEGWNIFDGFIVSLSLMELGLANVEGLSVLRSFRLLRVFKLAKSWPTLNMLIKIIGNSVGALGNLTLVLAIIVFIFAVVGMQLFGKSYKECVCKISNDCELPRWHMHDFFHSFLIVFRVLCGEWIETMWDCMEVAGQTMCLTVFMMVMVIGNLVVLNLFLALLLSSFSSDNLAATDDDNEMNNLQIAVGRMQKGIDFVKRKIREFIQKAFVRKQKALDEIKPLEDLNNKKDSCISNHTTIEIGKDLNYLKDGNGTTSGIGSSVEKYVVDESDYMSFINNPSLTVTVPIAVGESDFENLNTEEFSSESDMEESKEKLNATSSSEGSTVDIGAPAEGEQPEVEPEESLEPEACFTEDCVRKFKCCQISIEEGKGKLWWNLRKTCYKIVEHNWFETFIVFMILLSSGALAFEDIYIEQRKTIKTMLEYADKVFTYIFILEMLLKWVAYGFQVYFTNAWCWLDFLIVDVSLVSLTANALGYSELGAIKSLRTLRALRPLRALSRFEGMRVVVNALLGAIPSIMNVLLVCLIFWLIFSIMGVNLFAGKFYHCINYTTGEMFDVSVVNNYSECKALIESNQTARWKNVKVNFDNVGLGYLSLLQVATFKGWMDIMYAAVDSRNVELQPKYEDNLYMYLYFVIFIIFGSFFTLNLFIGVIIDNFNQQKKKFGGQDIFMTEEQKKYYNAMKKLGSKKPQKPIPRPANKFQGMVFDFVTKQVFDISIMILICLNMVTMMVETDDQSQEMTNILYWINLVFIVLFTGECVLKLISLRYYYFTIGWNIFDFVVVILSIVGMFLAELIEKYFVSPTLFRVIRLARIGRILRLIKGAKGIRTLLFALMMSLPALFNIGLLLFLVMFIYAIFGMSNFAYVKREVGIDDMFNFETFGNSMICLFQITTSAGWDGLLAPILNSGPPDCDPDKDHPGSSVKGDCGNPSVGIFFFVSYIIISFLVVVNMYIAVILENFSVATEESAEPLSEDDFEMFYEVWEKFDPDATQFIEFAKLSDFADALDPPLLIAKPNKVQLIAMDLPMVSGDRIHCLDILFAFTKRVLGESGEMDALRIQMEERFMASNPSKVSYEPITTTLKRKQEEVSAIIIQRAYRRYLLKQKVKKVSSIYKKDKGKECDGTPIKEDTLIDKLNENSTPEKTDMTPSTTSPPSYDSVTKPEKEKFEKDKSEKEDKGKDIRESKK
Chain of cardiac voltage-gated potassium channel HERG (Q12809 whole entry): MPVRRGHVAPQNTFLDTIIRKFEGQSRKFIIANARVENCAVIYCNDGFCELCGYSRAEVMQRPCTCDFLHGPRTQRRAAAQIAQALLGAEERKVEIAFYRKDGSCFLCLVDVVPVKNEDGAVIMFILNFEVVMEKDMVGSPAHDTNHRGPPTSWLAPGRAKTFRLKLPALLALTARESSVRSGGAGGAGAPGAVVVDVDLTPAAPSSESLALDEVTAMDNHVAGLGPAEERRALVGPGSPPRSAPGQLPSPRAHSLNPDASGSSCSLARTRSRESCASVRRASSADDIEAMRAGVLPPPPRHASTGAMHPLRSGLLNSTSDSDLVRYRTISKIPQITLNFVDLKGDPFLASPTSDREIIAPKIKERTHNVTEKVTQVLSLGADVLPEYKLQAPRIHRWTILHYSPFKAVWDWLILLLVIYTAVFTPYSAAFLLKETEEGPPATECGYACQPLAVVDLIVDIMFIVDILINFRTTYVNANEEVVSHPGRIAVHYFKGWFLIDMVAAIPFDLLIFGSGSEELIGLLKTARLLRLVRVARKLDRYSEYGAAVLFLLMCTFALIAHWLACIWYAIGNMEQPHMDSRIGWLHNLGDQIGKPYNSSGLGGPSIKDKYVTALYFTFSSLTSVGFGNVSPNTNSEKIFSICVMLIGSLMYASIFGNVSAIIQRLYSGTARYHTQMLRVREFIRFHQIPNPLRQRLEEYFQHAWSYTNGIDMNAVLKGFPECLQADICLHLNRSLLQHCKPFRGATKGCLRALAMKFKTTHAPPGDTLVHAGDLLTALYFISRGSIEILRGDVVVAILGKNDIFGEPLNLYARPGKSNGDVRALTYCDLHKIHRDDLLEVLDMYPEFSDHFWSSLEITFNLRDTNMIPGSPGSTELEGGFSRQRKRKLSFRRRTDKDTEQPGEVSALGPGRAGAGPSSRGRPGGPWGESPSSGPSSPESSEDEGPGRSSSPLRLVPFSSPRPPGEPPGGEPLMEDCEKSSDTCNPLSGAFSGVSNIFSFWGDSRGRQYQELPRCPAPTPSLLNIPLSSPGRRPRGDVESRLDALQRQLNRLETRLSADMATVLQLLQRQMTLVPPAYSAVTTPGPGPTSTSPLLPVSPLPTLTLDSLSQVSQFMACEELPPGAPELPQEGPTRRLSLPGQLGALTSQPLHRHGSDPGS

Feasible brain concentration ([1]; extrapolated from therapeutic plasma concentration 2-10 μM): up to 3.3 μM | Kp at 1 h ([1]; male, Sprague Dawley, brain, iv, rat, i.v. infusion 85.5 μg/kg/min, 1 h, read-out: Brain/Plasma): 0.38 | Kp at 2.5 h ([1]; male, Sprague Dawley, brain, iv, rat, i.v. infusion 85.5 μg/kg/min, 2.5 h, read-out: Brain/Plasma): 0.38 | Kp at 5 h ([1]; male, Sprague Dawley, brain, iv, rat, i.v. infusion 85.5 μg/kg/min, 5 h, read-out: Brain/Plasma): 0.3 | concentration at 1 h ([1]; male, Sprague Dawley, rat, brain, iv, Brain (molar), rat, i.v. infusion 85.5 μg/kg/min, 1 h, heading: Brain): 0.7 µM | concentration at 2.5 h ([1]; male, Sprague Dawley, rat, brain, iv, Brain (molar), rat, i.v. infusion 85.5 μg/kg/min, 2.5 h, heading: Brain): 1.04 µM | concentration at 1 h ([1]; male, Sprague Dawley, rat, brain, iv, rat, i.v. infusion 85.5 μg/kg/min, 1 h, read-out: Brain): 298 ± 88.6 ng/g | concentration at 2.5 h ([1]; male, Sprague Dawley, rat, brain, iv, rat, i.v. infusion 85.5 μg/kg/min, 2.5 h, read-out: Brain): 446 ± 302 ng/g | concentration at 5 h ([1]; male, Sprague Dawley, rat, brain, iv, rat, i.v. infusion 85.5 μg/kg/min, 5 h, read-out: Brain): 470 ± 300 ng/g | concentration at 1 h ([1]; male, Sprague Dawley, rat, plasma, iv, rat, i.v. infusion 85.5 μg/kg/min, 1 h, read-out: Plasma): 0.777 ± 0.255 µg/mL | concentration at 2.5 h ([1]; male, Sprague Dawley, rat, plasma, iv, rat, i.v. infusion 85.5 μg/kg/min, 2.5 h, read-out: Plasma): 1.18 ± 0.456 µg/mL | concentration at 5 h ([1]; male, Sprague Dawley, rat, plasma, iv, rat, i.v. infusion 85.5 μg/kg/min, 5 h, heading: Plasma, read-out: Plasma): 3.72 µM | concentration at 5 h ([1]; male, Sprague Dawley, rat, plasma, iv, rat, i.v. infusion 85.5 μg/kg/min, 5 h, read-out: Plasma): 1.59 ± 0.488 µg/mL | Brain penetration ([1]; rat, all time points (1, 2.5, 5 h)): significant brain penetration | Brain ([1]; rat, i.v. infusion 85.5 μg/kg/min, 5 h): 470 ng/g | Mean brain levels as fraction of corresponding plasma levels ([1]; rat, throughout the time course 1-5 h): approximately one third | Potency at inhibiting persistent current compared to use-dependent block of peak current (Nav1.1 R1648H): 4.6 fold | Selectivity for tonic block of persistent current over peak current (Nav1.1 R1648H): approximately 16 fold | Tonic Block of Peak Current k (Hill slope) (Nav1.1 R1648H): −1.00 ± 0.19 | Tonic Block of Persistent Current k (Hill slope) (Nav1.1 R1648H): −1.00 ± 0.09 | Effect on persistent current (Nav1.1 R1648H; 30 μM ranolazine): substantially reduced | Tonic block of peak current (Nav1.1 R1648H; 30 μM ranolazine): minimal tonic block | Use-Dependent Block of Peak Current k (Hill slope) (Nav1.1 R1648H; 10 Hz train): −0.88 ± 0.03 | IC50 (Nav1.1 R1648H; [7]): 138 µM | IC50 (Nav1.1 R1648H; [8]): 490 µM | IC50 (Nav1.1 R1648H; [9]): 30.2 µM | Potency at inhibiting persistent current compared to use-dependent block of peak current (WT-Nav1.1): 3.6 fold | Selectivity for tonic block of persistent current over peak current (WT-Nav1.1): approximately 16 fold | Tonic Block of Peak Current k (Hill slope) (WT-Nav1.1): −0.84 ± 0.15 | Tonic Block of Persistent Current k (Hill slope) (WT-Nav1.1): −0.83 ± 0.06 | Effect on peak current density (WT-Nav1.1; 30 μM ranolazine): no significant effect | Shift of voltage-dependence of activation or inactivation (WT-Nav1.1; 30 μM ranolazine): did not significantly shift | Tonic block of peak current (WT-Nav1.1; 30 μM ranolazine): minimal | Inactivation k (slope factor) (WT-Nav1.1; 30 μM ranolazine, fast inactivation): −8.0 ± 0.5 mV | Inactivation V1/2 (WT-Nav1.1; 30 μM ranolazine, fast inactivation, 100 ms prepulses): −64.2 ± 0.8 mV | Activation V1/2 (WT-Nav1.1; 30 μM ranolazine, n=10): −21.6 ± 0.8 mV | Activation k (slope factor) (WT-Nav1.1; 30 μM ranolazine, n=10): 8.0 ± 0.2 mV | Use-Dependent Block of Peak Current k (Hill slope) (WT-Nav1.1; 10 Hz train): −0.84 ± 0.05 | IC50 (WT-Nav1.1; [7]): 195 µM | IC50 (WT-Nav1.1; [8]): 871 µM | IC50 (WT-Nav1.1; [9]): 53.7 µM | Inhibition of WT-Nav1.2 (WT-Nav1.2): has the ability to inhibit WT-Nav1.2
Compound: COc1ccccc1OCC(O)CN1CCN(CC(=O)Nc2c(C)cccc2C)CC1 (racemic) [Ranolazine, (±)-N-(2,6-dimethylphenyl)-4-[2-hydroxy-3-(2-methoxyphenoxy)-propyl]-1-piperazineacetamide]
Tolerability [2]: well tolerated | Charge conducted during slow depolarizing voltage ramp (−40 to 0 mV, normalized to peak current) (Nav1.1 R1648H; 3 μM ranolazine, 20 mV/s ramp): reduced the charge conducted by R1648H to the level observed in cells expressing WT channels recorded in the absence of drug | Use-dependent block: loss of channel availability (Nav1.1 R1648H; [6]): exaggerated loss of availability at all frequencies greater than 22 Hz | Association rate kon (Nav1.4): 8.2e+06 M⁻¹ s⁻¹ | Usual therapeutic plasma concentration [3]: 2 to 10 µM | Block of HERG [4]: blocks | Use-dependent block: channel availability by the 300th pulse ([5]; 30 μM ranolazine, WT-Nav1.1 and mutant channels, 10 Hz): significant loss of channel availability | Block of persistent current compared to peak current ([5]; 30 μM ranolazine, all mutants, tonic block): much greater degree of ranolazine block of persistent current as compared to peak current | Use-dependent reduction in channel availability compared to WT-Nav1.1 ([5]; 30 μM ranolazine, mutants R1648H, T875M and R1648C): significantly greater reduction in channel availability | Level of persistent current in presence of ranolazine versus WT-Nav1.1 without drug ([5]; 30 μM ranolazine, mutants R1648H, T875M, L263V): not significantly different from WT-Nav1.1 channels in the absence of drug | Greater inhibition of persistent current compared to tonic block of peak current [5, 10]: 16 fold | Greater inhibition of persistent current compared to use-dependent block of peak current [5, 10]: 5 fold | Use-dependent block: loss of channel availability (WT-Nav1.1; [6]): exaggerated loss of availability at all frequencies greater than 22 Hz | Use-dependent block: peak current during repetitive pulsing (WT-Nav1.1; 30 μM ranolazine, 5 ms, −10 mV, 300 pulses, 10 Hz): caused a reduction in peak current during repetitive pulsing
